Literature values, collected in patent US10481149B2.

Tested on: elimination transporters
Settings: sandwich-cultured rat hepatocytes; cited from earlier work

COc1ccc(Cl)cc1C(=O)NCCc1ccc(S(=O)(=O)NC(=O)NC2CCCCC2)cc1 [glibenclamide]
interference with rosuvastatin elimination: 29.3%
